Measurements as given in patent publication US10618901B2 (GlaxoSmithKline Intellectual Property Development Limited, priority 2014, dated 2020).

Target: T1, 6HIS-Tev-LRRK2 (1326-2527) (Homo sapiens, UniProt Q5S007)
T1 construct: A LRRK2 cDNA encoding residues 1326-2527 was received from Dundee University; made in house; host or cells: Spodoptera frugiperda Sf9 (baculovirus, pFB-HTb)
T1 sequence (Q5S007 1326-2527): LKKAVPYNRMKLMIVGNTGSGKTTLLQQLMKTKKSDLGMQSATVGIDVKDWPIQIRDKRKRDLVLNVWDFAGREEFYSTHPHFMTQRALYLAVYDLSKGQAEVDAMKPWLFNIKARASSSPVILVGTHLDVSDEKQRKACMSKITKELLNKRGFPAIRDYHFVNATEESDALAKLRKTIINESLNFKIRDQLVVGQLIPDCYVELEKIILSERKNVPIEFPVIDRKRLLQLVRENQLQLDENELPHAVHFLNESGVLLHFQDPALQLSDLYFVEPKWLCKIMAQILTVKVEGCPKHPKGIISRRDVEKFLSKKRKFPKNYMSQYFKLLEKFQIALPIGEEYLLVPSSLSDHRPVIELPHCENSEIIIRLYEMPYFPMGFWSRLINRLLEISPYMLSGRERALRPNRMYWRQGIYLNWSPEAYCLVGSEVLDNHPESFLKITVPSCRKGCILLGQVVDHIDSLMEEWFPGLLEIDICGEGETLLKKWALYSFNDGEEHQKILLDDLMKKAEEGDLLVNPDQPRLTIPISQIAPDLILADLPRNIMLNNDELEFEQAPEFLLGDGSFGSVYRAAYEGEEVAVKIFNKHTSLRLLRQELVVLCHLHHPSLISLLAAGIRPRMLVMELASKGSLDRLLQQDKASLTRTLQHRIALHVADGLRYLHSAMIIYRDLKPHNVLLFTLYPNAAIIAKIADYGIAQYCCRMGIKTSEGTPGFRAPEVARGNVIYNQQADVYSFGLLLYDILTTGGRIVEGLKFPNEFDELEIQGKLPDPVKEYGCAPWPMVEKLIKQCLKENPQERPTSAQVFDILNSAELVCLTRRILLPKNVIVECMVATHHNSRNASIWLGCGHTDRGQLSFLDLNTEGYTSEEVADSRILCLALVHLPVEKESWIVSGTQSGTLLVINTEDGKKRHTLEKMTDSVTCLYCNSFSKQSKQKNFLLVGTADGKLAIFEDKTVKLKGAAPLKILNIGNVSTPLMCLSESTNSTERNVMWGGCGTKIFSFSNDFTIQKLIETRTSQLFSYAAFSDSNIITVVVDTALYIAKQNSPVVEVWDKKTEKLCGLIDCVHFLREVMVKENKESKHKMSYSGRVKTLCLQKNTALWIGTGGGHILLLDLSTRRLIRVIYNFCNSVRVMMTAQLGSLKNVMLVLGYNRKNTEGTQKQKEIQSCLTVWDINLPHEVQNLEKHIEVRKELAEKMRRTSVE
Assay: LRRK2 Inhibition Mass Spectrometry Assay
Format: biochemical
Settings: 60 nM LRRK2 enzyme; 25 uM LRRKtide; 20 uM ATP; read-out: LRRK2 Inhibition Mass Spectrometry Assay (pIC50) (converted)
Method: A LRRK2 cDNA encoding residues 1326-2527 was received from Dundee University (described in M. Jaleel et al., 2007, Biochem J, 405: 407-417). This gene fragment was subcloned into pFB-HTb (Invitrogen) using BamHI and NotI restriction sites. The LRRK2 plasmid was recombined into the baculovirus genome according to the BAC-to-BAC protocol described by Invitrogen. Transfection into Spodoptera frugiperda (Sf9) insect cells was performed using Cellfectin (Invitrogen), according to the manufacturer's protocol to generate P1 and P2 baculovirus stocks.
Sf9 cells were grown in HyClone SFX (Thermo Scientific) growth media at 27° C., 80 rpm in shake flask until of a sufficient volume to inoculate a bioreactor. The cells were grown in a 20 liter working volume Wave bioreactor (GE Healthcare) at 27° C., 50% dissolved oxygen and an agitation rate 22 rocks per minute, 10 degree rock angle, 200 ml/min air with a cell concentration of approximately 6×e6 cells/ml. The cells were infected with P2 Baculovirus at a multiplicity of infection (MOI) of 3. The cultivation was continued for a 48 hour expression phase. The infected cells were removed from the growth media by centrifugation at 2500 g using a Sorvall RC 3C Plus centrifuge at 2500 g for 20 minutes. The cell pellet was immediately frozen and subsequently supplied for purification.
A 260 g pellet was allowed to thaw in a water bath at 27° C. with 800 ml lysis buffer/buffer A (50 mm Tris-HCl pH 8.5, 300 mM NaCl, 1 mm DTT, 10% glycerol, 1 ml/L calbiochem complete protease inhibitor cocktail and benzonase (50 ul/800 ml)) before being dounce homogenised on ice using 20 strokes per 100 ml. The suspension was packed in ice and sonicated at 50% amplitude for 3 min 10 sec on/off using a ¾″ probe. The suspension was then centrifuged at 100,000 g for 90 min, at 4° C.
The lysate (700 ml) was decanted from the insoluble pellet and contacted for 3 h at 4 C with 10 ml His bind Ni NTA resin by end over end mixing. The resin was recovered by centrifugation, 3000 g, 5 min at 4 C, and packed in an XK16 column. The column was then washed with 10 column volumes buffer A, 10 column volumes buffer B (buffer A+1M NaCl) and 10 column volumes buffer C (buffer A+20 mM imidazole). The column was then eluted with 15 column volumes buffer D (buffer A+300 mM imidazole) collecting 2 ml fractions. All washes and elution were conducted at 4 ml/min.
Fractions identified by SDS-PAGE as containing protein of interest were pooled and loaded directly onto a 320 ml SEC Superdex 200 pg column that was pre-equilibrated with buffer E (50 mM Tris-HCl pH 8.5, 300 mM NaCl, 10% glycerol, 1 mM DTT). The column was loaded and eluted with 1.2 column volumes buffer E at 2 ml/min collecting 2 ml fractions. Fractions identified by SDS-PAGE as containing protein of interest were tested for activity.
Production of LRRKtide for LRRK2 Inhibition Mass Spectrometry Assay
The ‘LRRKtide’ peptide H-RLGRDKYKTLRQIRQ-OH was synthesized as follows. The protected peptide was assembled on a solid-phase synthesiser using preloaded Wang resin and utilising standard Fmoc synthesis protocols. The crude peptide was obtained after cleavage from the resin with a mixture of trifluoroacetic acid (TFA), triisopropylsilane and water (95:2.5:2.5) for 3 hours at room temperature and was then purified using a C18 reverse-phase column utilising a 0.1% TFA-buffered water/acetonitrile gradient. The resulting fractions were analysed and fractions which were >95% pure by analytical HPLC and giving the correct molecular weight (mw) (by MALDiTOF mass spectroscopy) were pooled and freeze dried. The final material was analysed by HPLC and MALDiTOF mass spectroscopy.
LRRK2 Inhibition Mass Spectrometry Assay
This assay for Leucine Rich Repeat Kinase 2 (LRRK2) inhibition is based on the direct measurement of the peptide ‘LRRKtide’ (LRRKtide: RLGRDKYKT*LRQIRQ (H-RLGRDKYKTLRQIRQ-OH used for this screen)) and phosphorylated ‘LRRKtide’ using a high throughput RapidFire mass spectrometry assay. […]

Compound | IC50 [nM]
CCOc1nc(Nc2cnn([C@H]3CCN(C4COC4)C[C@@H]3F)c2Cl)nc2[nH]ccc12 (single isomer, unassigned) [Example E104] | 7.94
CCOc1nc(Nc2cnn([C@@H]3CCN(C4COC4)C[C@H]3F)c2Cl)nc2[nH]ccc12 (single isomer, unassigned) [Example E105] | 7.94
CCOc1nc(Nc2cnn(C3CC(N4CCOCC4)C3)c2C)nc2[nH]ccc12 (stereo not drawn) [Example E86, 4-ethoxy-N-(5-methyl-1-(3-morpholinocyclobutyl)-1H-pyrazol-4-yl)-7H-pyrrolo[2,3-d] pyrimidin-2-amine] | 10
CCOc1nc(Nc2cnn(CCN3CCO[C@H](C(F)F)C3)c2C)nc2[nH]ccc12 [Example E100, (S)—N-(1-(2-(2-(difluoromethyl)morpholino)ethyl)-5-methyl-1H-pyrazol-4-yl)-4-ethoxy-7H-pyrrolo[2,3-d]pyrimidin-2-amine] | 7.94

The next lines start with the values.

IC50 [nM] | Compound
10 | CCOc1nc(Nc2cnn(C3CCOCC3C)c2C)nc2[nH]ccc12 (single isomer, unassigned) [Example E113, (cis)-4-ethoxy-N-(5-methyl-1-(3-methyltetrahydro-2H-pyran-4-yl)-1H-pyrazol-4-yl)-7H-pyrrolo[2,3-d]pyrimidin-2-amine]
10 | CCOc1nc(Nc2cnn(C3CN(C)CCC3(F)F)c2C)nc2[nH]ccc12 (single isomer, unassigned) [Example E121, N-(1-(4,4-difluoro-1-methylpiperidin-3-yl)-5-methyl-1H-pyrazol-4-yl)-4-ethoxy-7H-pyrrolo[2,3-d]pyrimidin-2-amine]
10 | CCOc1nc(Nc2cnn(C3CN(C4COC4)CCC3(F)F)c2Cl)nc2[nH]ccc12 (single isomer, unassigned) [Example E124, N-(5-chloro-1-(4,4-difluoro-1-(oxetan-3-yl)piperidin-3-yl)-1H-pyrazol-4-yl)-4-ethoxy-7H-pyrrolo[2,3-d]pyrimidin-2-amine]
7.94 | CCOc1nc(Nc2cnn(C3CCN(C4COC4)CC3(F)F)c2Cl)nc2[nH]ccc12 (single isomer, unassigned) [Example E134, N-(5-chloro-1-(3,3-difluoro-1-(oxetan-3-yl)piperidin-4-yl)-1H-pyrazol-4-yl)-4-ethoxy-7H-pyrrolo[2,3-d]pyrimidin-2-amine]
7.94 | CCOc1nc(Nc2cnn(C3CN(C4COC4)CCO3)c2Cl)nc2[nH]ccc12 (single isomer, unassigned) [Example E141, N-(5-chloro-1-(4-(oxetan-3-yl)morpholin-2-yl)-1H-pyrazol-4-yl)-4-ethoxy-7H-pyrrolo[2,3-d]pyrimidin-2-amine]
